Measured values reported in patent US11091501B2, “Heterocyclic compounds as RSV inhibitors” (Enanta Pharmaceuticals, Inc., priority 2017, dated 2021).

system: Human RSV-A (“Long” strain); test: RSV in vitro cytoprotection assay (CPE, ATPlite) in HEp-2 cells; format: cell-based; conditions: human respiratory syncytial virus, 96 h; HEp-2 cells, 4-day incubation, ATPlite readout; read-out: Human RSV-A (“Long” strain) EC50
Excerpt: RSV is a single stranded negative sense RNA virus that causes respiratory tract infections which can be dangerous to infants, the elderly, and immunosuppressed individuals. Currently there is no vaccine, and therapeutic options are both costly and of limited effectiveness. These approved treatments are Ribavirin, and Palivizumab/Synagis (a monoclonal antibody). RSV has two genotypes, A and B, which differ primarily in the structure of the virus' surface “G” attachment protein. Our current primary screen focuses on RSV-A and uses an in vitro cytoprotection assay where compounds are added in 2-fold dilutions to cells which are then subjected to fully replicative viral particles. Cell viability is measured several days later along with separate measurements of compound cytotoxicity. This report focuses on the results of our most recent screening of compounds.
HEp-2 cells, (originally derived from tumors grown in irradiated-cortisonised weanling rats that had been injected with epidermoid carcinoma tissue from a person's larynx, but later found to be indistinguishable from HeLa cells by PCR DNA analysis), were used for the culturing of genotype A, “Long” strain RSV. Flasks were inoculated with RSV and viral stocks were collected once cytopathic effect (CPE) was greater than 90%. Viral stocks in 25% sucrose media were snap frozen using liquid nitrogen to increase viral stability. Viral stock titers were quantified by tissue culture infectious dose 50% (TCID50) using 8,000 cells per well and 3-fold viral dilutions across a 96-well plate, cultured for 4 days.
Following extensive parameter testing, the final assay is run as follows: HEp-2 cells are seeded into the inner 60 wells of a 96-well plate at 8,000 cells per well in a volume of 50 μL using Growth Media (DMEM without phenol red, 1% L-Glut, 1% Penn/Strep, 1% nonessential amino acids, 10% FBS). 2-Fold serial dilutions of control and test compounds are added to the wells in duplicate in a total volume of 25 μL. Viral stock is then added to the wells in a volume of […] the total volume of each well to 100 μL. Each 96-well plate has a control column of 6 wells with cells and virus but no compound (negative control, max CPE), a column with cells but no compound or virus (positive control, minimum CPE), and a column with no cells or virus or compound (background plate/reagent control). The control wells with cells but no virus are given an additional 25 uL of growth media containing an equal quantity of sucrose as those wells receiving the viral stock in order to keep consistent in media and volume conditions. The outer wells of the plate are filled with 125 μL of growth media to act as a thermal and evaporative moat around the test wells. Following a 4-day incubation period, the plates are read using ATPlite (50 uL added per well), which quantifies the amount of ATP (a measure of cell health) present in each well. Assay plates are read using the Envision luminometer. In parallel, cytotoxicity is examined on an additional 96-well plate treated in an identical manner, but substituting the 25 μL of viral stock for 25 μL of growth media. […] EC50 ranges are as follows: A<0.01 μM; B 0.01-0.05 μM; C>0.05 μM.

SMILES	EC50
O=C(Nc1c(F)cc(F)cc1F)c1cc2c(s1)-c1ccc(F)cc1N(C(=O)c1ccc(NC(=O)c3cc(F)cnc3N3CC4(CCOCC4)C3)cc1)CC2 [Example 4]	> 50 nM
N#Cc1cnc(N2CC3(CCOCC3)C2)c(C(=O)Nc2ccc(C(=O)N3CCc4cc(C(=O)Nc5c(F)cc(F)cc5Cl)sc4-c4ccc(F)cc43)cc2)c1 [Example 17]	10 to 50 nM
N#Cc1cnc(N2CC3(CCOCC3)C2)c(C(=O)Nc2ccc(C(=O)N3CCc4cc(C(=O)Nc5c(Cl)cccc5Cl)sc4-c4ccc(F)cc43)cc2)c1 [Example 18]	10 to 50 nM
O=C(Nc1c(F)cc(F)cc1Cl)c1cc2c(s1)-c1ccc(F)cc1N(C(=O)c1ccc(NC(=O)c3ccc(C(F)(F)F)nc3N3CC4(CCOCC4)C3)cc1)CC2 [Example 23]	10 to 50 nM
COc1ccc(C(=O)Nc2ccc(C(=O)N3CCc4cc(C(=O)Nc5c(F)cc(F)cc5Cl)sc4-c4ccc(F)cc43)cc2)c(N2CC3(CCOCC3)C2)n1 [Example 24]	10 to 50 nM
O=C(Nc1c(F)cc(F)cc1Cl)c1cc2c(s1)-c1ccc(F)cc1N(C(=O)c1ccc(NC(=O)c3cc4ccccc4nc3N3CC4(CCOCC4)C3)cc1)CC2 [Example 25]	10 to 50 nM
O=C(Nc1c(F)cc(F)cc1Cl)c1cc2c(s1)-c1ccc(F)cc1N(C(=O)c1ccc(NC(=O)c3ccc(-c4cccs4)nc3N3CC4(CCOCC4)C3)cc1)CC2 [Example 27]	10 to 50 nM
O=C(Nc1c(F)cc(F)cc1Cl)c1cc2c(s1)-c1ccc(F)cc1N(C(=O)c1ccc(NC(=O)c3cc(-c4cccs4)cnc3N3CC4(CCOCC4)C3)cc1)CC2 [Example 28]	10 to 50 nM
O=C(Nc1c(F)cc(F)cc1Cl)c1cc2c(s1)-c1ccc(F)cc1N(C(=O)c1ccc(NC(=O)c3cc(C(F)(F)F)cnc3N3CC4(CCOCC4)C3)cc1)CC2 [Example 29]	10 to 50 nM
O=C(Nc1c(F)cc(F)cc1Cl)c1cc2c(s1)-c1ccc(F)cc1N(C(=O)c1ccc(NC(=O)c3cc(C(F)(F)F)cnc3N3CCC4(CC3)COC4)cc1)CC2 [Example 30]	10 to 50 nM
O=C(Nc1c(F)cc(F)cc1Cl)c1cc2c(s1)-c1ccc(F)cc1N(C(=O)c1ccc(NC(=O)c3cc4ccccc4nc3N3C4CCC3COC4)cc1)CC2 [Example 32]	> 50 nM
O=C(Nc1c(F)cc(F)cc1Cl)c1cc2c(s1)-c1ccc(F)cc1N(C(=O)c1ccc(NC(=O)c3cc4ccccc4nc3N3CCS(=O)(=O)CC3)cc1)CC2 [Example 33]	> 50 nM
O=C(Nc1c(F)cc(F)cc1Cl)c1cc2c(s1)-c1ccc(F)cc1N(C(=O)c1ccc(NC(=O)c3cc4ccccc4nc3N3CCCS(=O)(=O)CC3)cc1)CC2 [Example 34]	> 50 nM
O=C(Nc1ccc(C(=O)N2CCc3cc(-c4nc5ccccc5[nH]4)sc3-c3ccc(F)cc32)cc1)c1cccnc1N1CC2(CCOCC2)C1 [Example 38]	10 to 50 nM
O=C(Nc1ccc(C(=O)N2CCc3cc(-c4nc5ccc(F)cc5[nH]4)sc3-c3ccc(F)cc32)cc1)c1cccnc1N1CC2(CCOCC2)C1 [Example 39]	10 to 50 nM
O=C(Nc1ccc(C(=O)N2CCc3cc(-c4nc5cccc(F)c5[nH]4)sc3-c3ccc(F)cc32)cc1)c1cccnc1N1CC2(CCOCC2)C1 [Example 40]	10 to 50 nM
O=C(Nc1ccc(C(=O)N2CCc3cc(-c4nc5cc(F)c(F)cc5[nH]4)sc3-c3ccc(F)cc32)cc1)c1cccnc1N1CC2(CCOCC2)C1 [Example 41]	> 50 nM
O=C(Nc1ccc(C(=O)N2CCc3cc(-c4nc5ccc(F)cc5[nH]4)sc3-c3ccc(F)cc32)cc1)c1cc(F)cnc1N1CC2(CCOCC2)C1 [Example 42]	10 to 50 nM
O=C(Nc1ccc(C(=O)N2CCc3cc(-c4nc5cccc(F)c5[nH]4)sc3-c3ccc(F)cc32)cc1)c1cc(F)cnc1N1CC2(CCOCC2)C1 [Example 43]	10 to 50 nM

Further lines, results first:

EC50	SMILES
< 10 nM	Cc1cnc(N2CC3(CCOCC3)C2)c(C(=O)Nc2ccc(C(=O)N3CCc4cc(-c5nc6ccccc6[nH]5)sc4-c4ccc(F)cc43)cc2)c1 [Example 3]
< 10 nM	Cc1cnc(N2CC3(CCOCC3)C2)c(C(=O)Nc2ccc(C(=O)N3CCc4cc(C(=O)Nc5c(F)cccc5C(F)(F)F)sc4-c4ccc(F)cc43)cc2)c1 [Example 5]
< 10 nM	Cc1cnc(N2CC3(CCOCC3)C2)c(C(=O)Nc2ccc(C(=O)N3CCc4cc(C(=O)Nc5c(C)cccc5C)sc4-c4ccc(F)cc43)cc2)c1 [Example 6]
< 10 nM	Cc1cnc(N2CC3(CCOCC3)C2)c(C(=O)Nc2ccc(C(=O)N3CCc4cc(C(=O)Nc5c(C)cccc5F)sc4-c4ccc(F)cc43)cc2)c1 [Example 7]
< 10 nM	Cc1cnc(N2CC3(CCOCC3)C2)c(C(=O)Nc2ccc(C(=O)N3CCc4cc(C(=O)Nc5ccccc5F)sc4-c4ccc(F)cc43)cc2)c1 [Example 8]
< 10 nM	Cc1cnc(N2CC3(CCOCC3)C2)c(C(=O)Nc2ccc(C(=O)N3CCc4cc(C(=O)Nc5c(Cl)cccc5Cl)sc4-c4ccc(F)cc43)cc2)c1 [Example 9]
10 to 50 nM	O=C(Nc1ccc(C(=O)N2CCc3cc(-c4nc5ccccc5[nH]4)sc3-c3ccc(F)cc32)cc1)c1cc2ccccc2nc1N1CC2(CCOCC2)C1 [Example 10]
< 10 nM	Cc1cnc(N2CC3(CCOCC3)C2)c(C(=O)Nc2ccc(C(=O)N3CCc4cc(C(=O)Nc5c(C)cccc5C#N)sc4-c4ccc(F)cc43)cc2)c1 [Example 11]
< 10 nM	Cc1cnc(N2CC3(CCOCC3)C2)c(C(=O)Nc2ccc(C(=O)N3CCc4cc(C(=O)Nc5c(F)cccc5F)sc4-c4ccc(F)cc43)cc2)c1 [Example 12]
< 10 nM	Cc1cnc(N2CC3(CCOCC3)C2)c(C(=O)Nc2ccc(C(=O)N3CCc4cc(C(=O)Nc5c(F)cc(F)cc5F)sc4-c4ccc(F)cc43)cc2)c1 [Example 13]
< 10 nM	Cc1cccc(F)c1NC(=O)c1cc2c(s1)-c1ccc(F)cc1N(C(=O)c1ccc(NC(=O)c3cc4ccccc4nc3N3CC4(CCOCC4)C3)cc1)CC2 [Example 14]
< 10 nM	O=C(Nc1c(F)cc(F)cc1F)c1cc2c(s1)-c1ccc(F)cc1N(C(=O)c1ccc(NC(=O)c3cc4ccccc4nc3N3CC4(CCOCC4)C3)cc1)CC2 [Example 15]
< 10 nM	O=C(Nc1c(F)cccc1F)c1cc2c(s1)-c1ccc(F)cc1N(C(=O)c1ccc(NC(=O)c3cc4ccccc4nc3N3CC4(CCOCC4)C3)cc1)CC2 [Example 16]
< 10 nM	O=C(Nc1c(F)cccc1F)c1cc2c(s1)-c1ccc(F)cc1N(C(=O)c1ccc(NC(=O)c3cccnc3N3CC4(CCOCC4)C3)cc1)CC2 [Example 19]
< 10 nM	O=C(Nc1c(F)cccc1Cl)c1cc2c(s1)-c1ccc(F)cc1N(C(=O)c1ccc(NC(=O)c3cccnc3N3CC4(CCOCC4)C3)cc1)CC2 [Example 20]
< 10 nM	O=C(Nc1c(F)cc(F)cc1F)c1cc2c(s1)-c1ccc(F)cc1N(C(=O)c1ccc(NC(=O)c3cccnc3N3CC4(CCOCC4)C3)cc1)CC2 [Example 22]
< 10 nM	O=C(Nc1c(F)cc(F)cc1Cl)c1cc2c(s1)-c1ccc(F)cc1N(C(=O)c1ccc(NC(=O)c3cc(F)cnc3N3CC4(CCOCC4)C3)cc1)CC2 [Example 26]
< 10 nM	O=C(Nc1c(F)cccc1F)c1cc2c(s1)-c1ccc(F)cc1N(C(=O)c1ccc(NC(=O)c3cc(F)cnc3N3CC4(CCOCC4)C3)cc1)CC2 [Example 35]
< 10 nM	Cc1cccc(F)c1NC(=O)c1cc2c(s1)-c1ccc(F)cc1N(C(=O)c1ccc(NC(=O)c3cc(F)cnc3N3CC4(CCOCC4)C3)cc1)CC2 [Example 36]
< 10 nM	O=C(Nc1c(F)cccc1Cl)c1cc2c(s1)-c1ccc(F)cc1N(C(=O)c1ccc(NC(=O)c3cc(F)cnc3N3CC4(CCOCC4)C3)cc1)CC2 [Example 37]
